# Tests used:
# [1] = Pilot study: oral daily Kneller's Trione in men, plasma sex hormone profile; type: in vivo, human; settings: for change of testosterone-to-estradiol ratio: 14 days, ending vs starting ratio; for TOTAL TESTOSTERONE / ESTRADIOL / DHT: person
# Protocol: The first study subject was a person who was dosed once per day orally with 25 mg per day of Kneller's Trione.
# The second study subject was a person who was dosed once per day orally with 50 mg per day of Kneller's Trione.
# The third study subject was a person who was dosed once per day orally with 100 mg per day of Kneller's Trione.
# [2] = Pilot study: adverse events and safety observations in study subjects; type: in vivo, human
smiles,measurement,setting,value
"C[C@]12CCC(=O)C[C@@H]1C(=O)C[C@@H]1[C@@H]2CC[C@]2(C)C(=O)CC[C@@H]12 [Kneller's Trione, 5α-androstane-3,6,17-trione]",change of testosterone-to-estradiol ratio,[1]; 25 mg daily oral,130%
same,change of testosterone-to-estradiol ratio,[1]; 50 mg daily oral,28%
same,effect on bioavailable testosterone level,[1]; 250 mg per day oral,raised
same,effect on total testosterone level,[1]; 250 mg per day oral,raised
same,effect on bioavailable testosterone level,[1]; 500 mg per day oral,raised
same,effect on total testosterone level,[1]; 500 mg per day oral,raised
same,added benefits with high dosage,[1]; 750 mg per day oral,no added benefits were seen
same,changes in plasma estradiol levels in men,[1]; general statement,no changes outside the accepted normal limits
same,effect on plasma testosterone levels in men,[1]; general statement,substantial and significant increases
same,increase of plasma free testosterone levels,[1]; oral administration,more than 100%
same,TOTAL TESTOSTERONE,"[1]; 25 mg per day oral, single dose, DAY 7 (baseline 6,290 pg/mL)","6,400 pg/mL"
same,ESTRADIOL,"[1]; 25 mg per day oral, DAY 7 (baseline 47 pg/mL)",28 pg/mL
same,DHT,"[1]; 25 mg per day oral, DAY 7 (baseline 42 ng/dL)",36 ng/dL
same,ESTRADIOL,"[1]; 25 mg per day oral, DAY 14 (baseline 47 pg/mL)",23 pg/mL
same,DHT,"[1]; 25 mg per day oral, DAY 14 (baseline 42 ng/dL)",49 ng/dL
same,TOTAL TESTOSTERONE,"[1]; 50 mg per day oral, single dose, DAY 7 (baseline 8,570 pg/mL)","11,000 pg/mL"
same,ESTRADIOL,"[1]; 50 mg per day oral, DAY 7 (baseline 36 pg/mL)",35 pg/mL
same,DHT,"[1]; 50 mg per day oral, DAY 7 (baseline 47 ng/dL)",46 ng/dL
same,ESTRADIOL,"[1]; 50 mg per day oral, DAY 14 (baseline 36 pg/mL)",36 pg/mL
same,TOTAL TESTOSTERONE,"[1]; 50 mg per day oral, DAY 14 (baseline 8,570 pg/mL)","11,000 pg/mL"
same,DHT,"[1]; 50 mg per day oral, DAY 14 (baseline 47 ng/dL)",49 ng/dL
same,ESTRADIOL,"[1]; 100 mg per day oral, DAY 7 (baseline 46 pg/mL)",44 pg/mL
same,DHT,"[1]; 100 mg per day oral, DAY 7 (baseline 35 ng/dL)",48 ng/dL
same,ESTRADIOL,"[1]; 100 mg per day oral, DAY 14 (baseline 46 pg/mL)",34 pg/mL
same,DHT,"[1]; 100 mg per day oral, DAY 14 (baseline 35 ng/dL)",41 ng/dL
same,adverse event causing the subject to withdraw,[2]; 750 mg per day oral,priaprism
same,other adverse events noted by any study subject,[2]; oral daily dosages 25 mg to 750 mg,No other adverse events
